# Assay results: US11192859B2, “Quinoline compounds as modulators of RAGE activity and uses thereof” (NEW YORK UNIVERSITY, priority 2016, dated 2021)
# Experiments:
# [1] = biological target: binding of RAGE tail (ctRAGE) to DIAPH1 (Homo sapiens (Human), UniProt Q15109); assay: Primary screen (high-throughput): blocking of GFP RAGE tail binding to DIAPH1; settings: 12.5 μM; Table 2
# Procedure: […] Compounds that reduced binding of RAGE tail (ctRAGE) by at least 50% were then selected and subjected to 4-point dose response (10 uM, 1 uM, 0.1 uM and 0.01 uM).
# • Step 1. Add 50 μl anti-DIAPH1 (1:160 dilution in 0.1M NaHCO3 pH 9.6)/well. Incubate overnight at 4° C. Day 2 • Step 2. Use the plate washer to aspirate anti-DIAPH11 and wash plates 4× with PBS 100 μl per well per wash. • Step 3. Add 180 μl 3% BSA in 1×PBS. Incubate for 1.5 hrs at room temperature Step 4. Use the plate washer to aspirate the blocking solution and wash 5× with PBS 300 μl per well. • Step 5. Add 50 μl of DIAPH1 containing lysate (85 μg) and incubate at RT for 3 hours. • Step 6. Aspirate the lysate and wash the plate 5×(100 μl) on the plate washer. • Step 7. Add 25 μl PBS to the wells. • Step 8. Add 0.5 μL compound per well. • Step 9. Add 24.5 μL GFP RAGE tail (125 nM) into each well for 2 hrs at room temperature. • Step 10. Aspirate and wash 5× with PBS (100 μL) on the plate washer. • Step 11. Add 100 μl PBS in each well. • Step 12. Detection: Read on fluorescence plate reader excitation […] and 485 nm emission
# Compounds that blocked the binding of RAGE tail to DIAPH1 by 50% or more were subjected to 4 point dose response: 10 μM, 1 μM, 0.1 μM and 0.01 μM.
# [2] = biological target: ctRAGE (Homo sapiens (Human), UniProt Q15109); assay: Kd determinations (Tables 1 and 2); format: binding; settings: Table 2
# Chain of ctRAGE (Q15109 23-404 limits assumed): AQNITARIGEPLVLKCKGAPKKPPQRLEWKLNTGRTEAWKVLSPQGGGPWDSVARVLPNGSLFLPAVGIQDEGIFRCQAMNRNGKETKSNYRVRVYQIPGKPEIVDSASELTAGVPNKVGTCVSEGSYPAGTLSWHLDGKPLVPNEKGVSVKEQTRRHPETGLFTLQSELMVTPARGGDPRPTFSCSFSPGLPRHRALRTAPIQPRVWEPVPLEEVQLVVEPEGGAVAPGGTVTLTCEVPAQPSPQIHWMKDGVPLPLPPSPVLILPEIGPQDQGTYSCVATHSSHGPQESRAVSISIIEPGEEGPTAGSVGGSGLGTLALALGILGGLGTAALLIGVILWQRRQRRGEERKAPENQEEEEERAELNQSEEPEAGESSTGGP
# Procedure: Binding affinities of small molecules for either CT-RAGE or FH1 are determined by performing fluorescence titrations to generate binding isotherms and standard SPR experiments.
# A number of representative quinoline compounds of this invention are or can be tested for their inhibitory activity.
# Chain of binding of RAGE tail (ctRAGE) to DIAPH1 (Q15109 364-404): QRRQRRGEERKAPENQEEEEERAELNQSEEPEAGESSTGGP
inhibition at 12.5 µM [1] [%],Kd [2] [µM],Compound
27,43,"CC(=O)Nc1ccc(-c2cc(C(=O)N3CCOCC3)c3cccc(Cl)c3n2)cc1 [Compound 101, N-(4-(8-Chloro-4-(morpholine-4-carbonyl)quinolin-2-yl)phenyl)acetamide]"
37,29,"CC(=O)Nc1ccc(-c2cc(C(=O)N3CCOCC3)c3cccc(Cl)c3n2)cn1 [Compound 102, N-(5-(8-Chloro-4-(morpholine-4-carbonyl)quinolin-2-yl)pyridin-2-yl)acetamide]"
38,18,"CC(=O)Nc1ccc(-c2cc(C(=O)N3CCOCC3)c3cccc(Cl)c3n2)nc1 [Compound 103, N-(6-(8-Chloro-4-(morpholine-4-carbonyl)quinolin-2-yl)pyridin-3-yl)acetamide]"
37,60,"CC(=O)Nc1ccc(-c2cc(C(=O)N3CCOCC3)c3cc(Cl)ccc3n2)cc1 [Compound 104, N-(4-(6-Chloro-4-(morpholine-4-carbonyl)quinolin-2-yl)phenyl)acetamide]"
32,45,"CC(=O)Nc1ccc(-c2cc(C(=O)N3CCOCC3)c3cc(Cl)ccc3n2)cn1 [Compound 105, N-(5-(6-Chloro-4-(morpholine-4-carbonyl)quinolin-2-yl)pyridin-2-yl)acetamide]"
35,34,"CC(=O)Nc1ccc(-c2cc(C(=O)N3CCOCC3)c3cc(Cl)ccc3n2)nc1 [Compound 106, N-(6-(6-Chloro-4-(morpholine-4-carbonyl)quinolin-2-yl)pyridin-3-yl)acetamide]"
31,44,"CC(=O)Nc1ccc(-c2cc(N3CCOCC3)c3ccccc3n2)cc1 [Compound 107, N-(4-(4-Morpholinoquinolin-2-yl)phenyl)acetamide]"
44,11,"CC(=O)Nc1ccc(-c2cc(CN3CCOCC3)c3ccccc3n2)cc1 [Compound 108, N-(4-(4-(Morpholinomethyl)quinolin-2-yl)phenyl)acetamide]"
20,1.9,"CC(=O)Nc1ccc(-c2cc(CN3CCOCC3)c3ccccc3n2)nc1 [Compound 109, N-(6-(4-(Morpholinomethyl)quinolin-2-yl)pyridin-3-yl)acetamide]"
18,,"CC(=O)Nc1ccc(-c2cc(CN3CCOCC3)c3cccc(Cl)c3n2)nc1 [Compound 111, N-(6-(8-Chloro-4-(morpholinomethyl)quinolin-2-yl)pyridin-3-yl)acetamide]"
27,,"CC(=O)Nc1ccc(-c2cc(C(C)N3CCOCC3)c3ccccc3n2)cc1 (centres unmarked) [Compound 112, N-(4-(4-(1-Morpholinoethyl)quinolin-2-yl)phenyl)acetamide]"
